Experimental data taken from article PMC9460781, “In Vitro and In Silico Study of the α-Glucosidase and Lipase Inhibitory Activities of Chemical Constituents from Piper cumanense (Piperaceae) and Synthetic Analogs” (Plants, 2022).
Values after ≈ are worked out from the molar mass of the structure shown.

Columns and labels:
[1] = molecular target: T1, α-glucosidase (AG) type I from Saccharomyces cerevisiae (Saccharomyces cerevisiae, UniProt P53341); experiment: Kinetic study on AG (Ki, type of inhibition); format: biochemical; conditions: for α-Glucosidase Inhibition Type: Lineweaver–Burk, abbreviated M, NC in Table S1; for Ki: nonlinear regression of enzyme inhibition kinetics
T1 construct: purchased Sigma-Aldrich L-SLBX6245 (printed); host or cells: Saccharomyces cerevisiae
T1 sequence (P53341 whole entry): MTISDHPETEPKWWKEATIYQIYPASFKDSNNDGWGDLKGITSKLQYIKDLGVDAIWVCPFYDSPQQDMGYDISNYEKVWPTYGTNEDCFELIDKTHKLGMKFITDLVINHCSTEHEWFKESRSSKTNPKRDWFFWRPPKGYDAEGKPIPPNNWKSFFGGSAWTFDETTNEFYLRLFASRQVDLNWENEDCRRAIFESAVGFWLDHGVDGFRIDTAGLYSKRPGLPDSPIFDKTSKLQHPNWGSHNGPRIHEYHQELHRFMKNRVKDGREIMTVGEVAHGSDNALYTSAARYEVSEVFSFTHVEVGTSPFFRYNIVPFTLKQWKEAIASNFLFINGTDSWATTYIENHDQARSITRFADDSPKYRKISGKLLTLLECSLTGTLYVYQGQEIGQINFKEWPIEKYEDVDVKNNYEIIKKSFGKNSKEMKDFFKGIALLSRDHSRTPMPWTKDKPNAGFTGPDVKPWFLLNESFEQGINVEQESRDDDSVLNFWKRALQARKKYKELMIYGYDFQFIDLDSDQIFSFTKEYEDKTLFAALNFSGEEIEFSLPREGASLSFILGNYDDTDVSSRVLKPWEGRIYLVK
From the text: (§1) The enzymes used in this study were pancreatic lipase type II (PL) from porcine pancreas (100–400 units/mg protein, L-SLBD2433V, EC. 3.1.1.3, Sigma-Aldrich, San Luis, MO, USA) and α-glucosidase (AG) type I from Saccharomyces cerevisiae (lyophilized powder, ≥10 units/mg protein, L-SLBX6245, EC 3.2.1.20, Sigma-Aldrich, San Luis, MO, USA). 4-nitrophenyl dodecanoate (Sigma-Aldrich, San Luis, MO, USA) was used as the substrate for PL while 4-nitrophenyl-α-D-glucopyranoside (Sigma-Aldrich, San Luis, MO, USA) for AG. Absorbance readings were performed in a Multiskan GO microplate reader (Thermo Scientific®, Waltham, MA, USA).
(§2) Kinetic studies to determine the type of inhibition were performed with PL and AG using a methodology the same as that described in the inhibitory activity assays. […] Five substrate concentrations were used for each of the enzymes in the range between 12.5 to 200 μM p-nitrophenyl dodecanoate for PL and 25 to 800 μM for p-nitrophenyl-α-D-glucopyranoside in AG. Kinetic experiments were performed in triplicate in two independent experiments. Inhibition constants (Ki) were calculated from (substrate) vs reaction rate curves using nonlinear regression of the enzyme inhibition kinetic function. Additionally, the inhibition mechanism was graphically determined by applying the double reciprocal Lineweaver–Burk regression function.

[2] = molecular target: T2, pancreatic lipase type II (PL) from porcine pancreas (Sus scrofa, UniProt P00591); experiment: PL inhibition assay; format: biochemical; conditions: p-nitrophenyl dodecanoate substrate, pH 8.4, 37 °C; NA: not active
T2 construct: purchased Sigma-Aldrich L-SLBD2433V (printed); host or cells: porcine pancreas
T2 sequence (P00591 1-450): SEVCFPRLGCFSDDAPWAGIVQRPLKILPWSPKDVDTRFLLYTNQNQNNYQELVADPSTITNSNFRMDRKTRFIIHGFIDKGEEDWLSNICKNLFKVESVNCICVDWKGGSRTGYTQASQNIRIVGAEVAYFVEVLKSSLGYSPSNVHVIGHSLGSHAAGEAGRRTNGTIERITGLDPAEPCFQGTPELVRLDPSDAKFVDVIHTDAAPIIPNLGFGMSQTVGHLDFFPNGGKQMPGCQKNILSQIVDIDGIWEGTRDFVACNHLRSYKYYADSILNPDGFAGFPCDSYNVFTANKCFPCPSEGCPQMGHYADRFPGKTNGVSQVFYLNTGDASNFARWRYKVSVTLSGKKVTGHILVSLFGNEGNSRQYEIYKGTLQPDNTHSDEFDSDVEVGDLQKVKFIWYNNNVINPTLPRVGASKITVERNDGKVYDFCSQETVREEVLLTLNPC
From the text: as §1
Determination of enzymatic inhibition of the identified compounds against the PL enzyme was carried out following the methodology described in the literature with some modifications. The concentrations were evaluated for compounds from 300 to 6.25 µM. […] In 96-well boxes, 30 μL of extract or compound stock solution, 30 μL of PL solution (200 U/mL), and 160 μL of Tris-HCl buffer (0.1 M, pH: 8.4) were mixed. The mixture obtained was pre-incubated for 30 min at 37 °C. Subsequently, 30 μL of p-nitrophenyl dodecanoate (100 μM) were added to complete a final volume of 250 μL and incubated for 40 min at 37 °C. After the incubation time, the absorbance was measured at 405 nm. All assays were performed in triplicate in two independent assays. IC50 values were estimated by nonlinear regression analysis. Statistically significant differences in biological effects of inhibitors (compounds) were analyzed and compared using the ANOVA test, supplemented by Tukey HSD post hoc analysis. All reported data corresponded to the average of three repetitions ± SD, and the statistical significance considered was p < 0.05.

[3] = molecular target: T2, pancreatic lipase type II (PL) from porcine pancreas; experiment: Kinetic study on PL (Ki, type of inhibition); format: biochemical; conditions: for Pancreatic Lipase Inhibition Type: Lineweaver–Burk, abbreviated UC, C, NC, M in Table S1; for Ki: nonlinear regression of enzyme inhibition kinetics
From the text: as §1, §2

[4] = tested on: AG; conditions: cited from earlier work
[5] = molecular target: T1, α-glucosidase (AG) type I from Saccharomyces cerevisiae; experiment: biochemical; conditions: α-Glucosidase IC50, p-nitrophenyl-α-D-glucopyranoside substrate, pH 7.2, 37 °C; NA: not active
From the text: as §1
Determination of enzyme inhibition of the compounds identified against the AG enzyme was carried out following the methodology described in the literature with some modifications. The concentrations were evaluated for compounds from 300 to 6.25 µM. […] In 96-well boxes, 10 μL of stock solution of each extract or compound, 20 μL of GA solution (0.5 U/mL), and 200 μL of phosphate buffer (0.1 M, pH: 7.2) were mixed. The mixture obtained was pre-incubated for 30 min at 37 °C. […] After the reaction time, the absorbance at 405 nm was measured. […] Statistically significant differences in the biological effects of inhibitors (compounds) were analyzed and compared using ANOVA, supplemented by Tukey HSD post hoc analysis. […]

[6] = tested on: chemokine receptor CCR5; design: method as in PMID 14561515; conditions: cited from earlier work

Structure (SMILES) | IC50 [2] [µM] | Ki [3] [µM] | Pancreatic Lipase Inhibition Type [3] | further results
C[C@H]1O[C@H](O[C@H]2[C@H](O)[C@@H](O)[C@@H](O[C@H]3[C@H](O)[C@@H](O)C(O)O[C@@H]3CO)O[C@@H]2CO)[C@H](O)[C@@H](O)[C@@H]1N[C@H]1C=C(CO)[C@@H](O)[C@H](O)[C@H]1O (stereo partly drawn) [Acarbose, reference compound] |  |  |  | α-Glucosidase Inhibition Type [1]: Competitive
CO[C@H]1C=CC(=O)N1C(=O)CCc1ccccc1 [chaplupyrrolidone B] |  |  |  | IC50 [4]: 430 µM
O=C(/C=C/C=C/c1ccc2c(c1)OCO2)N1CCCCC1 [piperine] |  |  |  | IC50 on AG [4]: 147 µg/mL (≈ 515 µM)
CCCCC1(O)CC(C)(C)Oc2ccccc21 (stereo not drawn) [Compound 6, 4-Butyl-2,2-dimethyl-chroman-4-ol] | 28.3 ± 2.9 | 28.3 | Noncompetitive | IC50 [5]: 154 ± 4.65 µM; α-Glucosidase Inhibition Type [1]: mixed-type; Ki [1]: 51.3 µM
CCCCCCCCCCC[C@@H](C[C@@H]1OC(=O)[C@H]1CCCCCC)OC(=O)[C@H](CC(C)C)NC=O [Orlistat, reference compound] |  |  | Irreversible | 
CC(C)=CCCC(C)=CC(O)c1ccc2c(c1)C=CC(C)(C)O2 (stereo not drawn) [Compound 7, 1-(2,2-Dimethyl-2H-chromen-6-yl)-3,7-dimethyl-octa-2,6-dien-1-ol] | 33.1 ± 5.28 | 25.4 | Competitive | IC50 [5]: 134 ± 5.6 µM; α-Glucosidase Inhibition Type [1]: Noncompetitive; Ki [1]: 136 µM
COc1ccc(C(=O)O)cc1CC=C(C)C [Compound 4, 4-methoxy-3-(3′-methyl-2’-butenyl)benzoic acid] |  |  |  | Pancreatic Lipase IC50 [2]: did not show any activity; melting point: 112 to 113 °C; ability to bind to the chemokine receptor CCR5 [6]: confirmed
CC(C)=CCC/C(C)=C/C(=O)c1cc(C(=O)O)cc(CC=C(C)C)c1O [Compound 1, (2′E) cumenic acid] | 33.8 ± 5.95 | 7.88 |  | 

Continued, in another order:

IC50 [2] [µM] | Ki [3] [µM] | Structure (SMILES) | Pancreatic Lipase Inhibition Type [3] | further results
55.8 ± 2.98 | 42.8 | COC(=O)c1cc(CC=C(C)C)c(O)c(C(=O)C=C(C)CCC=C(C)C)c1 [Compound 8, 3-(3,7-Dimethyl-octa-2,6-dienoyl)-4-hydroxy-5-(3-methyl-but-2-enyl)-benzoic acid methyl ester] | Mixed | 
36.2 ± 5.05 | 8.46 | CC(C)=CCC/C(C)=C\C(=O)c1cc(C(=O)O)cc(CC=C(C)C)c1O [Compound 2, (2′Z) cumenic acid] |  | melting point: 132 to 134 °C
48.3 ± 2.57 | 48.3 | CC(C)=CC(=O)c1ccccc1O [Compound 5, 1-(2-Hydroxy-phenyl)-3-methyl-but-2-en-1-one] | Noncompetitive | 
36.3 ± 6.5 | 18 | CC(C)=CCCC1(C)C=Cc2cc(C(=O)O)cc(CC=C(C)C)c2O1 (stereo not drawn) [Compound 3, gaudichaudianic acid] | Competitive | 
